Reference: PubChem BioAssay (NCI)
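Grown in 96-well plates, cells were treated for 48 hours with each compound at five concentrations. Insufficient inhibition: endpoint recorded as highest concentration tested. GI50: concentration for 50% inhibition of growth. TGI marks complete inhibition of growth.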

Key:
Assay in all cases: inhibition of tumour cell growth, NCI panel, 48 h
[1] = tested on: RPMI-8226 leukemia
[2] = tested on: SF-539 CNS
[3] = tested on: UO-31 renal
[4] = tested on: SN12C renal
[5] = tested on: ACHN renal
[6] = tested on: HOP-62 NSCLC
[7] = tested on: MDA-MB-231 breast
[8] = tested on: HCC-2998 colon
[9] = tested on: 786-0 renal
[10] = tested on: SNB-75 CNS
[11] = tested on: HCT-116 colon
[12] = tested on: TK-10 renal
[13] = tested on: SK-MEL-28 melanoma
[14] = tested on: LOX IMVI melanoma
[15] = tested on: NCI-H460 lung
[16] = tested on: EKVX NSCLC
[17] = tested on: SNB-19 CNS
[18] = tested on: SK-OV-3 ovarian
[19] = tested on: SF-268 CNS
[20] = tested on: MALME-3M melanoma
[21] = tested on: A549 NSCLC
[22] = tested on: HOP-92 NSCLC
[23] = tested on: SF-295 CNS
[24] = tested on: PC-3 prostate
[25] = tested on: IGROV1 ovarian
[26] = tested on: MCF7 breast
[27] = tested on: A498 renal
[28] = tested on: MDA-MB-468 breast
[29] = tested on: NCI/ADR-RES ovarian
[30] = tested on: SK-MEL-2 melanoma
[31] = tested on: HS 578T breast
[32] = tested on: M14 melanoma
[33] = tested on: U251 CNS
[34] = tested on: OVCAR-8 ovarian
[35] = tested on: UACC-257 melanoma
[36] = tested on: NCI-H226 lung
[37] = tested on: UACC-62 melanoma
[38] = tested on: OVCAR-5 ovarian
[39] = tested on: SW-620 colon
[40] = tested on: BT-549 breast
[41] = tested on: NCI-H522 lung
[42] = tested on: MDA-MB-435
[43] = tested on: HCT-15 colon
[44] = tested on: DU-145 prostate
[45] = tested on: SK-MEL-5 melanoma
[46] = tested on: CAKI-1 renal
[47] = tested on: COLO 205 colon
[48] = tested on: K-562 leukemia
[49] = tested on: NCI-H23 lung
[50] = tested on: MOLT-4 leukemia
[51] = tested on: RXF 393 renal
[52] = tested on: HL-60(TB) leukemia

Molecule `O=C(NN1C(=O)/C(=C/C=C/c2ccc([N+](=O)[O-])o2)SC1=S)c1cccc(O)c1` has a GI50 [1] of 0.387 µM, a TGI [1] of 2.19 µM and a GI50 [2] of 1.58 µM. It also gave a TGI [2] of 2.95 µM, a GI50 [3] of 1.41 µM and a TGI [3] of 2.72 µM. It also gave a GI50 [4] of 0.256 µM, a TGI [4] of 1.15 µM and a GI50 [5] of 1.64 µM. It also gave a TGI [5] of 3 µM, a GI50 [6] of 1.73 µM and a TGI [6] of 3.19 µM. For the same molecule, the GI50 [7] was 0.253 µM, the TGI [7] was 0.737 µM and the GI50 [8] was 1.74 µM. The TGI [8] was 3.15 µM, the GI50 [9] was 1.62 µM and the TGI [9] was 3.02 µM. For the same molecule, the GI50 [10] was 1.28 µM, the TGI [10] was 5.87 µM and the GI50 [11] was 0.233 µM. It also gave a TGI [11] of 0.63 µM, a GI50 [12] of 1.78 µM and a TGI [12] of 3.49 µM. The GI50 [13] was 1.66 µM, the TGI [13] was 3.03 µM and the GI50 [14] was 0.167 µM. It also gave a TGI [14] of 0.323 µM, a GI50 [15] of 1.63 µM and a TGI [15] of 3.71 µM. It also gave a GI50 [16] of 1.49 µM, a TGI [16] of 2.9 µM and a GI50 [17] of 1.81 µM. The TGI [17] was 3.56 µM, the GI50 [18] was 1.91 µM and the TGI [18] was 4.31 µM. It also gave a GI50 [19] of 1.95 µM, a TGI [19] of 4.81 µM and a GI50 [20] of 0.205 µM. It also gave a TGI [20] of 0.447 µM, a GI50 [21] of 2.92 µM and a TGI [21] of 11.6 µM. It also gave a GI50 [22] of 1.23 µM, a TGI [22] of 2.82 µM and a GI50 [23] of 2.12 µM. The TGI [23] was 5.01 µM, the GI50 [24] was 1.88 µM and the TGI [24] was 4.18 µM. The GI50 [25] was 1.39 µM, the TGI [25] was 2.69 µM and the GI50 [26] was 1.24 µM. It also gave a TGI [26] of 2.96 µM, a GI50 [27] of 19.7 µM and a TGI [27] of 33.8 µM. The GI50 [28] was 1.71 µM, the TGI [28] was 3.4 µM and the GI50 [29] was 1.96 µM. It also gave a TGI [29] of 4.63 µM, a GI50 [30] of 1.07 µM and a TGI [30] of 2.44 µM. It also gave a GI50 [31] of 2.13 µM, a TGI [31] of 7.7 µM and a GI50 [32] of 0.282 µM. It also gave a TGI [32] of 0.921 µM, a GI50 [33] of 1.39 µM and a TGI [33] of 2.89 µM. For the same molecule, the GI50 [34] was 0.571 µM, the TGI [34] was 2.54 µM and the GI50 [35] was 1.74 µM. The TGI [35] was 3.54 µM, the GI50 [36] was 0.393 µM and the TGI [36] was 1.58 µM. It also gave a GI50 [37] of 0.587 µM, a TGI [37] of 1.93 µM and a GI50 [38] of 1.85 µM. For the same molecule, the TGI [38] was 3.38 µM, the GI50 [39] was 0.209 µM and the TGI [39] was 0.485 µM. For the same molecule, the GI50 [40] was 0.492 µM, the TGI [40] was 1.79 µM and the GI50 [41] was 0.185 µM. For the same molecule, the TGI [41] was 0.367 µM, the GI50 [42] was 0.675 µM and the TGI [42] was 2.11 µM. For the same molecule, the GI50 [43] was 0.167 µM, the TGI [43] was 0.371 µM and the GI50 [44] was 2.12 µM. For the same molecule, the TGI [44] was 4.48 µM, the GI50 [45] was 0.662 µM and the TGI [45] was 1.95 µM. The GI50 [46] was 1.57 µM, the TGI [46] was 2.92 µM and the GI50 [47] was 1.6 µM. It also gave a TGI [47] of 3.08 µM, a GI50 [48] of 0.222 µM and a TGI [48] of 1.1 µM. For the same molecule, the GI50 [49] was 1.01 µM, the TGI [49] was 2.26 µM and the GI50 [50] was 0.295 µM. For the same molecule, the TGI [50] was 1.28 µM, the GI50 [51] was 1.25 µM and the TGI [51] was 2.52 µM. The GI50 [52] was 2.12 µM and the TGI [52] was 5.49 µM.
